Patent publication US9506933B2, “Method of preparing antigen for acquiring anti-hydrophobic peptide antibody” (TOAGOSEI CO., LTD., priority 2011, dated 2016)
Blank lines part the entries; values can stand above or below the substance they belong to. Ends that are not written are not given here.

Legend:
Assay type in all cases: physicochemical
[1] = Particle size of FCG24 and FLF23 in 1% Tween 20 suspensions (Countess / dynamic light scattering); details: 1% Tween 20 suspension; dynamic light scattering particle size analyser
[2] = Molecular weight distribution of SPAPP aggregates (centrifugation, spin filters, BCA assay)
Experimental: The molecular weight distribution of SPAPP aggregates in the suspension was measured in accordance with the following procedure.
(i) The suspension was centrifuged at 15,000 rpm for five minutes and divided into supernatant and precipitate. This centrifugation causes particles equal to or larger than about 1 μm to precipitate.
(ii) The supernatant was applied to a molecular weight 100,000 cutoff spin filter (Amicon Microcon YM-100) and caused to pass through the filter by centrifugation.
(iii) The flow-through solution of (ii) was applied to a molecular weight 10,000 cutoff spin filter and caused to pass through the filter by centrifugation.
On each stage of the process described above, the protein concentration of the solution was measured by the BCA protein assay (Thermo Fisher Scientific) using BSA as the standard.
The time from suspension of SPAPP in pure water to addition of various surfactants was changed to confirm that the molecular size distribution of aggregates varies depending on the time. For example, in the case of 1% Tween 20, the insoluble fraction (precipitate) was 5% when the surfactants were added immediately after suspension of SPAPP in pure water, 17% when added after 1.5 hours, and 48% when added after 3 hours.

[3] = Isoelectric point of SPAPP
[4] = Molecular size distribution of SPAPP in other nonionic surfactant solutions; details: 1% PEG60 dodecyl ether, Triton X-100 or Nonidet P-40; surfactant added immediately or after 90 minutes
Experimental: It was examined whether SPAPP forms high-molecular-weight aggregates in other nonionic surfactant solutions. PEG60 dodecyl ether (Polypure), Triton X-100, and Nonidet P-40 were used as surfactants at 1% in each case. As was the case with the method of Example 2, each of the surfactants was used for preparing SPAPP suspension and, after the size fractionation using centrifugation and spin-type molecular weight cutoff filters, 10% SDS was added to and mixed with each of fractions to the final concentration of 1% to dissolve the aggregates. The peptide concentrations of the fractions were measured by the BCA assay and the molecular weight distribution of SPAPP aggregates were summarized as shown in FIGS. 6A and 6B. […] In the histograms, “Ppt” indicates peptides removed by centrifugation, i.e., precipitate, which is considered to have a size of 1 μm or larger and a molecular weight of several hundred kilodaltons or more. “>100 kDa” indicates 100 kDa or more and “<100 kDa” indicates 100 kDa or less.

[5] = Test of solubility of peptide SPAPP to various solvents (visual transparency)
Excerpt: (1) Powdered purified SPAPP was mixed with various solvents at various concentrations to examine solubility.
The term “soluble” used in the following description means a state in which solvent is visually transparent and “insoluble” means a state in which solvent is visually cloudy.

Substance: FLFCWILMILVVLTFVVGANVEK (listed as Homo sapiens) [FLF23]
particle size [1]: particles with sizes larger than the signals of only the 1% Tween 20 solution were confirmed

insoluble fraction (precipitate) ([2]; 1% Tween 20 added after 1.5 hours in pure water): 17%
insoluble fraction (precipitate) ([2]; 1% Tween 20 added after 3 hours in pure water): 48%
insoluble fraction (precipitate) ([2]; 1% Tween 20 added immediately after suspension of SPAPP in pure water): 5%
isoelectric point [3]: 10.9
Solubility ([5]; 0.1% trifluoroacetic acid (pH 2.0), SPAPP conc. 7.5 mg/ml): Soluble
Solubility ([5]; 1% Nonidet P40, SPAPP conc. 1~5 mg/ml): Soluble
Solubility ([5]; 1% PEG12, SPAPP conc. 1~5 mg/ml): Soluble
Solubility ([5]; 1% PEG24, SPAPP conc. 1~5 mg/ml): Soluble
Solubility ([5]; 1% PEG60 docesylether, SPAPP conc. 1~5 mg/ml): Soluble
Solubility ([5]; 1% SDS (anionic surfactant), SPAPP conc. 1~5 mg/ml): Soluble
Solubility ([5]; 1% TritonX-100, SPAPP conc. 1~5 mg/ml): Soluble
Solubility ([5]; 1% Tween20, SPAPP conc. 1~5 mg/ml): Soluble
Solubility ([5]; 1% Tween80, SPAPP conc. 1~5 mg/ml): Soluble
Solubility ([5]; 1% cholesterol-PEG (NOF CORPORATION NO. CS050), SPAPP conc. 1~5 mg/ml): Soluble
Solubility ([5]; 1% formic acid (pH 3.0), SPAPP conc. 0.5 mg/ml): Soluble
Solubility ([5]; 100% DMF, SPAPP conc. 20 mg/ml): Soluble
Solubility ([5]; 100% DMS0, SPAPP conc. 50 mg/ml): Soluble
Solubility ([5]; 100% methanol, SPAPP conc. 0.5 mg/ml): Soluble
Solubility ([5]; Phosphate buffer (PBS) (pH 7)): Insoluble
Solubility ([5]; Pure water, SPAPP conc. 0.1 mg/ml): Insoluble
Solubility ([5]; neutral aqueous solutions): completely insoluble
Solubility ([5]; neutral aqueous solutions containing polar and nonionic surfactants): soluble
Solubility ([5]; polar organic solvents): soluble
Solubility ([5]; strongly acidic aqueous solutions): soluble
Substance: MLPGLALLLLAAWTARA-OH [SPAPP]
formation of high-molecular-weight aggregates [4]: high-molecular-weight aggregates are formed with any of the surfactants
